Here are results for 1 substance from US10272126B2, “Nanoparticle-stabilized microcapsules, dispersions comprising nanoparticle-stabilized microcapsules, and method for the treatment of bacterial biofilms” (The University of Massachusetts, priority 2015, dated 2019).

The test system of this data set is NIH 3T3 fibroblast cells. In words: Biofilm-3T3 fibroblast co-culture: mammalian cell viability (LDH cytotoxicity assay). It counts as cell-based. From the text: Scatters and lines represent 3T3 fibroblast cell viability. Bars represent log10 of colony forming units in biofilms. The data are average of triplicates and the error bars indicate the standard deviations.
Biofilm infections within wounds interfere with the ability of the host to regenerate damaged tissue. See, e.g., Roy, S.; Elgharably, H.; Sinha, M.; Ganesh, K.; Chaney, S.; Mann, E.; Miller, C.; Khanna, S.; Bergdall, V. K.; Powell, H. M.; et al. Mixed-Species Biofilm Compromises Wound Healing by Disrupting Epidermal Barrier Function. J. Pathol. 2014, 233, 331-343. […] The co-cultures were treated with capsules for 3 hours, washed, and the viabilities of both fibroblasts and bacteria were measured. […]
Testing solutions at different concentrations were made by diluting capsules into DMEM prior to use. […] Co-cultures were then analyzed using a LDH cytotoxicity assay to determine mammalian cell viability according the manufacturer's instructions. See, e.g., Decker, T.; Lohmann-Matthes, M. L. A Quick and Simple Method for the Quantitation of Lactate Dehydrogenase Release in Measurements of Cellular Cytotoxicity and Tumor Necrosis Factor (TNF) Activity. […] The solutions containing dispersed bacteria were then plated onto agar plates and colony forming units were counted after incubation at 37° C. overnight.

Consider peppermint oil, for which the “3T3 fibroblast cell viability in co-culture” value was “toxic effects”.
